Experimental data: publication PMC10102062, “Effects of DPTQ, a novel positive allosteric modulator of the dopamine D1 receptor, on spontaneous eye blink rate and spatial working memory in the nonhuman primate” (Psychopharmacology, 2023)

Columns and labels:
[1] = Plasma ligand exposure after IM injection (LC/MS) and projected brain concentrations; type: in vivo, macaque monkeys
Procedure: Plasma samples were collected in EDTA tubes at 0, 0.25, 0.50, 1, 2, 4, 8, 12, and 24 h after a bolus IM injection and stored at − 70C until further analysis by LC/MS (for further details see Hao et al. [2019]). For the lower dose of 0.1 mg/kg, IM, plasma samples were collected from three of the animals participating in the spatial working memory task at Yale University, at approximately 1.5 h after dosing (~ 30 min after completion of behavioral test session). Animals were acclimated to sitting freely in a customized chair and having one leg held for hair trimming (if necessary), wiping with 70% alcohol, and saphenous venopuncture using a BD Vacutainer tube inside a safety holder. For the 5 mg/kg, IM dose, plasma samples were collected in a separate study in three male adult macaque monkeys at Eli Lilly and Company, Indianapolis, IN. The collection and storage of samples followed the procedure described above, and analysis of D1 ligand levels was carried out at Eli Lilly and Company, Indianapolis, IN, USA, using liquid chromatography and tandem mass spectrometry.

[2] = system: rhesus monkey; experiment: Spatial delayed response working memory task; type: in vivo, rhesus and one stumptail macaque; conditions: for Delay-dependent errors: 0.1 mg/kg; for Delay-dependent errors at short delays: 1.0 mg/kg
Procedure: Sixteen rhesus and one stumptail macaque participated in the study (details provided below) that was performed at Yale University, New Haven CT, USA. Animals were used and cared for in full accordance with Yale University’s IACUC guidelines and polices in addition to all U.S. Federal policies and regulations. The monkeys were fed their normal diet each day, including appropriately nutritional biscuits and multiple fruits and vegetables for enrichment. Testing and any training occurred just before their main food course. This food consisted of biscuits, delivered each day, and all animals had full 24-h access to ad libitum water. Participation in cognitive testing was ensured by the enrichment of the environmental stimulation and the provision of the animals’ favorite food treats as rewards in the task, including yoghurt, raisins, almonds, grapes, fruit loops, and multiple other food items (Roberts et al [2010]).
The circuitry involved in this response is almost exclusively “dorsal stream” involving dorsolateral prefrontal cortex, particularly Area 46, and the lateral intraparietal sulcus (Goldman-Rakic [1996]). For a full description of the task used here, see Roberts et al. ([2010]). Animals were tested in a sound-attenuated room incorporating a testing chamber. In this task one of several well locations is baited with food in view of the animal and the wells are then covered with identical plaques. An opaque shutter is then lowered for one of 5 variable delays and then raised to allow the animal to make a response to one of the well locations to retrieve the food. Each delay length was repeated 4 times in a semirandom distribution across the 20 trials in each testing session. Each animal was stabilized prior to commencing any administration by gradually incrementing the number of wells (starting at just 2) and the lengths of the delay. The 5 variable delay lengths were set at 0, 1, 2, 3, and 4 s multiplied by a factor “N.” Thus, N was incremented by 1 up to a maximum of 10 until the subject performed at 80% or more across 3 consecutive test sessions whereupon the number of wells was incremented by 1. This process was repeated for each individual until they reached stable performance (65–75% ± ≤ 2.5% correct). This normalized level of performance allows for the sensitive detection of any impairment or improvement produced by experimental conditions. For baseline data for this study, we took 7 or more consecutive data points that had been collected in previous weeks which fell within the stable limits for the test. For the total group of 17 animals participating in this study, the median well number was 4 (range 2–7) and the median N value was 3 (range 1–7). Animals were typically tested 2 to 3 days a week.
DPTQ (free base, Eli Lilly & Co.) was prepared as described above for the spontaneous eye blink test. Animals (4 males and 6 females, mean age = 22.1 ± 1.7 years) were originally assigned to receive either vehicle or DPTQ 2.5 mg/kg IM in a semi-random design. One animal received vehicle but was not dosed with DPTQ. This same group of animals was later used in a repeated dosing study with DPTQ 2.5 mg/kg vs vehicle. After a protracted washout period of several months we tested the lower doses of 0.1 mg/kg and 1.0 mg/kg in ascending order. This group of 10 animals included 3 from the previous study (3 males, 7 females (including one aged stumptail macaque); average age = 22.6 ± 1.7 years). The youngest animal in this study was aged 17.3 years. None of the animals were naïve and had all been used in previous studies with other compounds. They were given an extensive washout of weeks or months prior to this study and were established to have normal baseline performance on the task. During the study, animals were washed out based on known PK properties (half-life) of this drug as well as the baseline performance of each individual animal. […]

[3] = target: D2 receptor (Homo sapiens, UniProt P14416); experiment: Broad screening binding study with 3[H]-raclopride; conditions: 3[H]-raclopride as ligand; unpublished findings
Sequence of D2 receptor (P14416 whole entry): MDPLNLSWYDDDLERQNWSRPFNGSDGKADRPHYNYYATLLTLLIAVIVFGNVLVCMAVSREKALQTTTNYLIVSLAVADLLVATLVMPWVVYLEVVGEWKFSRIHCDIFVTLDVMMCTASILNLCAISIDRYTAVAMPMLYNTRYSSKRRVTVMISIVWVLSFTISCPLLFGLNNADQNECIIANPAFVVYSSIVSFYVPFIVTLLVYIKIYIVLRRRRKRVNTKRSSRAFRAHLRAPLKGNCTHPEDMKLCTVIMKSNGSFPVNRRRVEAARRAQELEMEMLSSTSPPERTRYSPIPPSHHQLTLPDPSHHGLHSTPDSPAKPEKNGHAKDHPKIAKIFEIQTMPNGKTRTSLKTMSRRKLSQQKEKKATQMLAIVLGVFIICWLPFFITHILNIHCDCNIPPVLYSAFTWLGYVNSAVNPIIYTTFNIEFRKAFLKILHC

[4] = system: human D1; design: method as in Hao et al. [2019]; conditions: stably transfected human D1 cloned cells; ref Hao et al. [2019]; read-out: EC50 for potentiation of the dopamine-induced increase in cAMP; cited from earlier work
[5] = design: method as in Hao et al. [2019]; conditions: after systemic dosing; ref Hao et al. [2019]; cited from earlier work

## C[C@H]1c2cccc(CC(C)(C)O)c2C[C@H](CO)N1C(=O)Cc1c(Cl)cccc1Cl [DPTQ]
[1]; 0.1 mg/kg IM, 1.5 h after dosing
  Estimated unbound ligand concentrations in the brain: 1 to 2 nM
[1]; 5 mg/kg IM, 2 h post dosing, hD1 and monkey D1 cAMP assay
  Projected unbound brain concentration as multiple of cAMP EC50: eightfold down to onefold
[1]; 0.1 vs 5 mg/kg IM
  Plasma levels at 0.1 mg/kg IM relative to 5 mg/kg IM (times lower): about 50 ×
[1]; after 12 or 24 h
  Plasma concentrations at late time points: negligible
[2]; 0.1 mg/kg IM, n = 10, no diminution on day 3, p = 0.014
  Working memory performance over 2 weeks: modest enhancement of working memory
[2]; day 1, short (0, 1) N and long (3, 4) N delays
  Delay-dependent errors: slight increase in errors
[2]; day 5, particularly long delays
  Delay-dependent errors: small but non-significant decrease in errors
[2]; 1.0 mg/kg IM, n = 8, p = 0.006, strongest day 4 p < 0.0001
  Working memory performance over 2 weeks: significant improvement in working memory
[2]; day 1
  Delay-dependent errors at short delays: no reduction in errors
[2]; day 5
  Delay-dependent errors at short delays: reduction
[2]; 2.5 mg/kg IM on days 1 and 5, n = 6
  Working memory performance day 3: non-significant dip
[2]; 2.5 mg/kg IM on days 1 and 5, day after repeat dose
  Working memory performance day 6: reduction in performance to baseline
[2]; 2.5 mg/kg IM on days 1 and 5, days 8, 12 p < 0.05, days 10, 14 p < 0.01
  Working memory performance days 8-14: enhancement
[2]; 2.5 mg/kg IM on days 1 and 5, p < 0.01
  Working memory performance days 4 and 5: rebound enhancement
[2]; 2.5 mg/kg IM single dose, day 1, 1 h post injection, n = 9
  Working memory performance, acute effect: No immediate acute effect
[2]; 2.5 mg/kg IM single dose, day 2
  Diminution of performance: 10%
[2]; 2.5 mg/kg IM single dose, day 3, p = 0.025 vs baseline, baseline 65–75% correct
  Mean performance score: 61.1
[2]; 2.5 mg/kg IM single dose, day 4, improvement days 4, 5, 6 p < 0.01
  Mean performance score: 84.3
[2]; 2.5 mg/kg day 1, vehicle day 5, n = 10, p = 0.278 vs baseline
  Working memory deficit on day 3: small and did not achieve significance
[2]; 2.5 mg/kg day 1, vehicle day 5, days 4, 8 p < 0.001, day 5 p < 0.0001, days 10, 12 p < 0.05
  Working memory performance days 4-12: enhancement
[2]; 0.1 to 2.5 mg/kg IM
  Dose range over which procognitive effects were observed: at least 25 fold
[2]; 1 h after injection, regardless of the dose administered
  Acute effect on spatial working memory: entirely null acute effect
[2]; day 3, p < 0.01, p < 0.05 respectively
  Score on day 3 at 0.1 and 1.0 mg/kg compared with 2.5 mg/kg: significantly higher score
[2]; day 4
  Score on day 4 at 2.5 mg/kg compared with 0.1 mg/kg: significantly greater
[2]; day 5, 0.1, 1.0, 2.5 mg/kg
  Difference in scores attributable to dose: No difference
[3]
  Ki: > 5600 nM
[4]
  EC50: 76 nM
[5]
  Brain penetration: acceptable brain penetration
